Assay results: article PMC9046087, “Structural basis of tethered agonism of the adhesion GPCRs ADGRD1 and ADGRF1” (Nature, 2022)

Columns and labels:
ADGRF1 [1] = experiment: Identification of phospholipid ligands by LC–MS/MS; format: binding, human
Description: The identification of phospholipids specifically bound to ADGRF1 was performed as previously described[33],[50] with minor modifications. In brief, ADGRF1 and control ADGRD1 protein were reduced with 5 mM TCEP at 25 °C for 30 min and alkylated with 20 mM idoacetamide at 25 °C for 30 min. Then the protein samples were digested with trypsin (Promega) at an enzyme-to-protein ratio of 1:50 (w/w) at 37 °C overnight. The digested proteins were dried in a vacuum concentrator and then extracted with 400 μl of ice-cold methanol:water (9:1, v/v) by vortex and sonication. After centrifugation at 12,000g for 15 min at 4 °C, the supernatants were collected and lyophilized under vacuum. The lipid extracts were resuspended in methanol:chloroform (9:1, v/v) to an equivalent concentration of 2 μM. Samples were analysed on a Q Exactive mass spectrometer (Thermo Fisher Scientific) operating in the positive ion mode coupled to a Waters Acquity UPLC system (Waters). […] The specificity of lipid binding to ADGRF1 was assessed by the ratio of EIC peak areas for each lipid in the ADGRF1 versus the control sample. […]

ADGRF1 [2] = settings: cited from earlier work
[3] = tested on: neurogenesis, neuritogenesis and synaptogenesis; settings: ref [35]; cited from earlier work
[4] = molecular target: T1, ADGRF1 (GPR110), residues V251–K860 (ADGRF1-construct 1) (human) (UniProt Q5T601)
T1 sequence: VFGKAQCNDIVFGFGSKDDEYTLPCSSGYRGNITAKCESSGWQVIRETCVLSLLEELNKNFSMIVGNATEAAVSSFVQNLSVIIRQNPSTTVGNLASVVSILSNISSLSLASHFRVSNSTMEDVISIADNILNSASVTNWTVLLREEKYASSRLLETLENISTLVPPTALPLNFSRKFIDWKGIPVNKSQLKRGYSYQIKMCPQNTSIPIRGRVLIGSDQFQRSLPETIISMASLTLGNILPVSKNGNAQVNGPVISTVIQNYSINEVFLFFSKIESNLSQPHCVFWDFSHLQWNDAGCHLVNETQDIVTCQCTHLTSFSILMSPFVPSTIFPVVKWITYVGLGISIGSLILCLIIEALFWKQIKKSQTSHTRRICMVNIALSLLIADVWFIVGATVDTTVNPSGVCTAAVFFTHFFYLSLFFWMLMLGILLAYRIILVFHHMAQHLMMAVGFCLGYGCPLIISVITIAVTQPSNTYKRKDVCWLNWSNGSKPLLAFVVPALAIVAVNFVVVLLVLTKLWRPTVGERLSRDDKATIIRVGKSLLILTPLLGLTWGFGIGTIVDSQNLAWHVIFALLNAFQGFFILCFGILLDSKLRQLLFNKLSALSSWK

[5] = molecular target: T2, ADGRD1 (GPR133), residues T545–T827 (ADGRD1-construct) (human) (UniProt Q6QNK2)
T2 sequence: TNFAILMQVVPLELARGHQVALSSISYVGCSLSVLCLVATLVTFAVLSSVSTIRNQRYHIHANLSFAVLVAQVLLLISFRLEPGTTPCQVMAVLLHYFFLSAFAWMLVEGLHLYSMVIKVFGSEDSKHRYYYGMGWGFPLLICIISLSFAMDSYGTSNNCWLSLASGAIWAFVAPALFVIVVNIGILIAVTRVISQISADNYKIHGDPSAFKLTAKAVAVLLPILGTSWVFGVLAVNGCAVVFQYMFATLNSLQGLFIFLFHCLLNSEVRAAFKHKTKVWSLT

ADGRD1 = experiment: Cell-surface expression by flow cytometry, ADGRD1; format: cell-based, human; settings: ADGRD1 constructs (pD1 Gs part of table), anti-Flag antibody, three independent measurements in duplicate
Description: The wild-type ADGRD1 and ADGRF1 and mutants used in functional studies were constructed into a pTT5 vector with a Flag tag at the N terminus for receptor expression measurement. The basal activity of ADGRD1 and ADGRF1 in mediating Gs signalling was measured by a cAMP accumulation assay using a LANCE Ultra cAMP detection kit (PerkinElmer) following the manufacturer’s instruction. In brief, 2 ml HEK293F cells (Invitrogen; cells were routinely tested for mycoplasma contamination) at a density of 1.2 × 10^6 cells per ml were transiently transfected with 2,000 ng plasmid of the wild-type or mutant receptor and cultured at 37 °C for 48 h with 5% CO2 atmosphere in a shaker shaking at 220 rpm. After collection, the cell-surface expression of the receptors was measured by incubating 10 μl cells with 15 μl monoclonal anti-Flag M2-FITC antibody (Sigma; 1:120 diluted in TBS supplemented with 4% BSA and 20% viability staining solution 7-AAD (Invitrogen)) at 4 °C for 20 min. After incubation, 175 μl TBS buffer was added and the fluorescent signal was measured using a flow cytometry reader (Guava easyCyte HT, Millipore).

## CCCCCCCCCCCCCCCC(=O)OC[C@@H](O)COP(=O)([O-])OCC[N+](C)(C)C [LPC 16:0]
ADGRF1 [1]; ADGRD1 as control, specific binder: mean EIC ratio > 2 and P < 0.05, n = 3
  specific binding to ADGRF1 (lipidomics): bound specifically to ADGRF1
ADGRF1 [1]; ADGRD1 protein as control, methanol:water lipid extract, P < 0.05, three independent experiments
  EIC peak ratio, ADGRF1 versus ADGRD1 (mean): > 2

## CC/C=C\C/C=C\C/C=C\C/C=C\C/C=C\C/C=C\CCC(=O)NCCO [synaptamide, N-docosahexaenoylethanolamine]
ADGRF1 [2]; believed to act through the extracellular GAIN domain, ref [36]
  stalk dependence of ADGRF1 activation: activates the receptor in a stalk-independent manner
ADGRF1 [2]; ref [35]
  agonism at ADGRF1: endogenous small-molecule agonist for ADGRF1
[3]
  neurogenesis, neuritogenesis and synaptogenesis: promotes neurogenesis, neuritogenesis and synaptogenesis

## TNFAILMQVVPLE [synthetic stalk peptide of ADGRD1 (pD1)]
[4]
  G protein activation of wild-type ADGRF1 in HEK293F cells (BRET assay with TRUPATH biosensors): EC50 of pD1 against that of pF1: 2 fold

## TSFSILMSPFVP [synthetic stalk peptide of ADGRF1 (pF1)]
[5]
  fold decrease in G protein activation of wild-type ADGRD1 in HEK293F cells (BRET assay with TRUPATH biosensors): potency of pF1 against that of pD1: 59 fold

B1: H656^3.53bA (protein, UniProt Q6QNK2 26-874, looked up, variant H656A)
Adhesion G-protein coupled …: VYSRSQDHPGFQVLASASHYWPLENVDGIHELQDTTGDIVEGKVNKGIYLKEEKGVTLLYYGRYNSSCISKPEQCGPEGVTFSFFWKTQGEQSRPIPSAYGGQVISNGFKVCSSGGRGSVELYTRDNSMTWEASFSPPGPYWTHVLFTWKSKEGLKVYVNGTLSTSDPSGKVSRDYGESNVNLVIGSEQDQAKCYENGAFDEFIIWERALTPDEIAMYFTAAIGKHALLSSTLPSLFMTSTASPVMPTDAYHPIITNLTEERKTFQSPGVILSYLQNVSLSLPSKSLSEQTALNLTKTFLKAVGEILLLPGWIALSEDSAVVLSLIDTIDTVMGHVSSNLHGSTPQVTVEGSSAMAEFSVAKILPKTVNSSHYRFPAHGQSFIQIPHEAFHRHAWSTVVGLLYHSMHYYLNNIWPAHTKIAEAMHHQDCLLFATSHLISLEVSPPPTLSQNLSGSPLITVHLKHRLTRKQHSEATNSSNRVFVYCAFLDFSSGEGVWSNHGCALTRGNLTYSVCRCTHLTNFAILMQVVPLELARGHQVALSSISYVGCSLSVLCLVATLVTFAVLSSVSTIRNQRYHIHANLSFAVLVAQVLLLISFRLEPGTTPCQVMAVLLHYFFLSAFAWMLVEGLALYSMVIKVFGSEDSKHRYYYGMGWGFPLLICIISLSFAMDSYGTSNNCWLSLASGAIWAFVAPALFVIVVNIGILIAVTRVISQISADNYKIHGDPSAFKLTAKAVAVLLPILGTSWVFGVLAVNGCAVVFQYMFATLNSLQGLFIFLFHCLLNSEVRAAFKHKTKVWSLTSSSARTSNAKPFHSDLMNGTRPGMASTKLSPWDKSSHSAHRVDLSAV
ADGRD1
  Cell-surface expression (% of WT): 86 ± 10 % of WT

B2: K760^6.40bA (protein, UniProt Q6QNK2 26-874, looked up, variant K760A)
Adhesion G-protein coupled …: VYSRSQDHPGFQVLASASHYWPLENVDGIHELQDTTGDIVEGKVNKGIYLKEEKGVTLLYYGRYNSSCISKPEQCGPEGVTFSFFWKTQGEQSRPIPSAYGGQVISNGFKVCSSGGRGSVELYTRDNSMTWEASFSPPGPYWTHVLFTWKSKEGLKVYVNGTLSTSDPSGKVSRDYGESNVNLVIGSEQDQAKCYENGAFDEFIIWERALTPDEIAMYFTAAIGKHALLSSTLPSLFMTSTASPVMPTDAYHPIITNLTEERKTFQSPGVILSYLQNVSLSLPSKSLSEQTALNLTKTFLKAVGEILLLPGWIALSEDSAVVLSLIDTIDTVMGHVSSNLHGSTPQVTVEGSSAMAEFSVAKILPKTVNSSHYRFPAHGQSFIQIPHEAFHRHAWSTVVGLLYHSMHYYLNNIWPAHTKIAEAMHHQDCLLFATSHLISLEVSPPPTLSQNLSGSPLITVHLKHRLTRKQHSEATNSSNRVFVYCAFLDFSSGEGVWSNHGCALTRGNLTYSVCRCTHLTNFAILMQVVPLELARGHQVALSSISYVGCSLSVLCLVATLVTFAVLSSVSTIRNQRYHIHANLSFAVLVAQVLLLISFRLEPGTTPCQVMAVLLHYFFLSAFAWMLVEGLHLYSMVIKVFGSEDSKHRYYYGMGWGFPLLICIISLSFAMDSYGTSNNCWLSLASGAIWAFVAPALFVIVVNIGILIAVTRVISQISADNYKIHGDPSAFKLTAAAVAVLLPILGTSWVFGVLAVNGCAVVFQYMFATLNSLQGLFIFLFHCLLNSEVRAAFKHKTKVWSLTSSSARTSNAKPFHSDLMNGTRPGMASTKLSPWDKSSHSAHRVDLSAV
ADGRD1
  Cell-surface expression (% of WT): 126 ± 21 % of WT
